The target in one test is T1, MMP-3 (Homo sapiens, UniProt P08254).
T1 construct: Truncated Prostromelysin-257 was expressed in a soluble form in E.coli; made in house; host or cells: E. coli
As to the kind of experiment: Primary Thiopeptilide MMP-3 Inhibition Assay. The note with it: for IC50: pH 6.5, 13 nM stromelysin, x (n) = average of n determinations, read-out: MMP-3 Thiopep. IC50; for inhibition at 5 µM: read-out: MMP-3 Thiopep. % inhibition. The test is classed as biochemical.

For a further test, the target named is T2, MMP-9 (Homo sapiens, UniProt P14780).
T2 construct: from tissue; host or cells: human polymorphonuclear leukocytes (PMN) from whole blood (New York Blood Center), PMA-stimulated supernatant
As to the kind of experiment: Thiopeptilide MMP-9 Inhibition Assay. The test is classed as biochemical. To be noted: for inhibition at 5 µM: read-out: MMP-9: Thiopep. % inhibition; for IC50: pH 6.5, x (n) = average of n determinations, read-out: MMP-9: Thiopep. IC50.

T2 sequence (P14780 107-707 limits assumed): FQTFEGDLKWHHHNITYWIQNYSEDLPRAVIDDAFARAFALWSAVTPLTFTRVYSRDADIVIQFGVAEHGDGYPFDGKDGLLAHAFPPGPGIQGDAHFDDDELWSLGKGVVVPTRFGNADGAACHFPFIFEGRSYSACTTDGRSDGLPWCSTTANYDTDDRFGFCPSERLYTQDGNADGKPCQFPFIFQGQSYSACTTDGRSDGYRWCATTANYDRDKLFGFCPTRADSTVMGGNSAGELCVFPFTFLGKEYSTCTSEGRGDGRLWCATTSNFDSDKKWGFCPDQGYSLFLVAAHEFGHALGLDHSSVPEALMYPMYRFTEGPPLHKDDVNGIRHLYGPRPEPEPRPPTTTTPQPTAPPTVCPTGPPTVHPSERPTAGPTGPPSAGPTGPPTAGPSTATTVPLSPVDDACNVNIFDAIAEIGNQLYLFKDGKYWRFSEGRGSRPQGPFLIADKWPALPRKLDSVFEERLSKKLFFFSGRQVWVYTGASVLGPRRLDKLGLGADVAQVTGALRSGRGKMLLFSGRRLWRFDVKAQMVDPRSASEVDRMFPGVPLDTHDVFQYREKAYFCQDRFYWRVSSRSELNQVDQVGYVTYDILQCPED
T1 sequence (P08254 100-274 limits assumed): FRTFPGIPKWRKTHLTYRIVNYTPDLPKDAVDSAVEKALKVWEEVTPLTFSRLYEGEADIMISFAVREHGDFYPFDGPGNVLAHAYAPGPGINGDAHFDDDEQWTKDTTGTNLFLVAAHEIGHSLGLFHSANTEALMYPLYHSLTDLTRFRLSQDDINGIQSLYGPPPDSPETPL
Method for MMP-3: Enzyme: recombinant stromelysin expressed in E.coli and purified as described above. […] The protocols for the assay of compounds as stromelysin inhibitors was the same as that used for MMP-9 except that the assay buffer was 50 mM MES, pH 6.5 containing 150 mM NaCl, 10 mM CaCl2, 0.005% Brij, and 1% DMSO.

With `O=C(CC(CCCc1ccc(Cl)cc1)C(=O)O)c1ccc(-c2ccc(Cl)cc2)cc1` (stereo not drawn) [Example 185, [1,1'-Biphenyl]-4-butanoic acid, 4'-chloro-α[3-(4-chlorophenyl)propyl]-γ-oxo-], the IC50 on MMP-3 was 220 nM. Besides, on MMP-9, the inhibition at 5 µM stood at 31%.
Consider `CC(C)CC(CC(=O)c1ccc(-c2ccc(O)cc2)cc1)C(=O)O` (stereo not drawn) [Example 31, [1,1'-Biphenyl]-4-butanoic acid, 4'-hydroxy-α-(2-methylpropyl)γ-oxo-], for which the inhibition at 5 µM at MMP-3 was 56%; at MMP-9, 29%.
`O=C(CC(CCOCc1ccccc1)C(=O)O)c1ccc(-c2ccc(Cl)cc2)cc1` (stereo not drawn) [Example 190, [1,1'-Biphenyl]-4-butanoic acid, 4'-chloro-γ-oxo-α-[2-(phenylmethoxy)ethyl]-]: the IC50 at MMP-3 was determined as 227 nM; on MMP-9, 215 nM.
For the compound `CCC(C)(CC(=O)O)CC(=O)c1ccc(-c2ccc(Cl)cc2)cc1` (stereo not drawn) [Example 335, [1,1'-Biphenyl]-4-pentanoic acid, 4'-chloro-β-ethyl-β-methyl-δ-oxo-], the inhibition at 5 µM at MMP-3 came out at 55%. In addition, the IC50 on MMP-9 turned out to be 6000 nM.
`CC(C)CC(CC(=O)c1ccc(-c2ccc(C#N)cc2)cc1)C(=O)O` (stereo not drawn) [Example 46, [1,1'-Biphenyl]-4-butanoic acid, 4'-cyano-α-(2-methylpropyl)-γ-oxo-]: the IC50 on MMP-3 was determined as 700 nM; on MMP-9, 4000 nM.
With `O=C(CC(CCCc1ccccc1)C(=O)O)c1ccc(-c2ccc(Cl)cc2Cl)cc1` (stereo not drawn) [Example 77, [1,1'-Biphenyl]-4-butanoic acid, 2',4'-dichloro-γ-oxo-α-(3-phenylpropyl)-], the inhibition at 5 µM was determined as 24% on MMP-3 and 7% at MMP-9.
Turning to `O=C(CC(CSc1ccc(O)cc1)C(=O)O)c1ccc(-c2ccc(Cl)cc2)cc1` (stereo not drawn) [Example 204, [1,1'-Biphenyl]-4-butanoic acid, 4'-chloro-α-[[(4-hydroxyphenyl)thio]methyl]-γ-oxo-], the half-maximal inhibitory concentration (IC50) at MMP-3 was 213 nM; at MMP-9, 215 nM.
The like results for `O=C(C[C@H](CCCc1ccccc1)C(=O)O)c1ccc(-c2ccc(Br)cc2)cc1` [Example 178, [1,1'-Biphenyl]-4-butanoic acid, 4'-bromo-γ-oxo-α-(3-phenylpropyl)-, (S)-] were, in that order, 150 nM and 240 nM.
In the same order, the values of `COc1ccc(SCC(CC(=O)c2ccc(-c3ccc(Cl)cc3)cc2)C(=O)O)cc1OC` (stereo not drawn) [Example 215, [1,1'-Biphenyl]-4-butanoic acid, 4'-chloro-α-[[(3,4-dimethoxyphenyl)thio]methyl]-γ-oxo-] are 1300 nM and 1200 nM.
In the same order, the values of `CC(=O)Nc1ccc(SCC(CC(=O)c2ccc(-c3ccc(Cl)cc3)cc2)C(=O)O)cc1` (stereo not drawn) [Example 223, [1,1'-Biphenyl]-4-butanoic acid, α-[[[4-(acetylamino)phenyl]thio]methyl]-4'-chloro-γ-oxo-] are 930 nM and 580 nM.
As for `O=C(O)/C=C/C(=O)c1ccc(-c2ccc(Cl)cc2)cc1` [Example 29, 4-Oxo-4-(4'-chloro-4-biphenyl)but-2-enoic acid, reference compound], the inhibition at 5 µM came out at 28% on MMP-3 and 44% on MMP-9.
Take `CC(=O)SCC(CC(=O)c1ccc(-c2ccc(Cl)cc2)cc1)C(=O)O` (stereo not drawn) [Example 200, [1,1'-Biphenyl]-4-butanoic acid, α-[(acetylthio)methyl]-4'-chloro-γ-oxo-]: the values for the IC50 on MMP-3 and on MMP-9 were 640 nM and 2300 nM, respectively.
On to `O=C(CC(Cc1ccc(-c2ccccc2)cc1)C(=O)O)c1ccc(-c2ccc(Cl)cc2)cc1` (stereo not drawn) [Example 182, [1,1'-Biphenyl]-4-butanoic acid, α-([1,1'-biphenyl]-4-ylmethyl)-4'-chloro-γ-oxo-], for which the values for the inhibition at 5 µM at MMP-3 and at MMP-9 were 7% and 17%, respectively.
For `CNC(=O)c1ccccc1SCC(CC(=O)c1ccc(-c2ccc(Cl)cc2)cc1)C(=O)O` (stereo not drawn) [Example 250, [1,1'-Biphenyl]-4-butanoic acid, 4'-chloro-α-[[[2-[(methylamino)carbonyl]phenyl]thio]methyl]-γ-oxo-], the half-inhibitory concentration (IC50) at MMP-3 amounted to 125 nM; at MMP-9 it was 800 nM.

As usually defined, the IC50 is the concentration needed to halve the response being measured. Usually inhibition stands for the drop in the measured response relative to a control, in per cent.

The values above are taken from US5789434A, “Derivatives of substituted 4-biarylbutyric acid as matrix metalloprotease inhibitors” (priority 1995, dated 1998).
